Results as given in PubChem BioAssay AID290 (DTP/NCI, 2004).
Values joined by “and” are separate entries in the source; they are usually repeats but may differ in a detail not shown here. Identical values can stand only once. Records with an inconclusive call do not appear. *1 amine or outer side, *2 acyl side, *3 side chain or, on linkers, in order; H or OH if unused. Where a SMILES comes first, the peptide text is derived from it. Bridges are numbered along the chain shown (N, C = ends). Roman numbers before positions name the chains, in order. [ ]: non-standard residue; d: D form. Actinocin(9to1) = Cc1c2oc3c(C)ccc(C(=O)[*:1])c3nc-2c(C(=O)[*:2])c(N)c1=O; aThr = C[C@H](O)[C@H](N)C(=O)O; NMeV = CN[C@H](C(=O)O)C(C)C; Sar = CNCC(=O)O

Tested on: mice, P1798 lymphosarcoma sc, survival or tumor weight T/C
Experiment: NCI In Vivo Anticancer Drug Screen. Data for tumor model P1798 Lymphosarcoma (subcutaneous) in unknown mice
Details: endpoint: mean tumor weight, higher = larger tumour
Description: The antitumor activity of compounds was measured in mice bearing transplantable tumors. Survival or tumor size were measured and the results are expressed as the measurement made in the treated group (T) divided by the measurement made in the vehicle treated control group (C). The tumor model used in this assay is P1798 Lymphosarcoma (subcutaneous) in unknown mice

[1] = dose: 10.0 mg/kg/injection, schedule: Q01DX010 (ip), vehicle: saline
[2] = dose: 12.5 mg/kg/injection, schedule: Q01DX010 (ip), vehicle: carboxymethylcellulose (CMC)
[3] = dose: 25.0 mg/kg/injection, schedule: Q01DX010 (ip), vehicle: carboxymethylcellulose (CMC)

Question: What does the source list for `CCC1=C(c2cc(Cl)c3ccccc3c2OCC(=O)O)OC(CC)(C(=O)c2cc(Cl)c3ccccc3c2OCC(=O)O)CC1` (stereo not drawn)?
Answer: T/C (dose: 30.0 mg/kg/injection, schedule: Q01DX010 (ip), vehicle: steriod suspending solution): 94 % of control; T/C (dose: 60.0 mg/kg/injection, schedule: Q01DX010 (ip), vehicle: steriod suspending solution): 112 % of control; T/C (dose: 120.0 mg/kg/injection, schedule: Q01DX010 (ip), vehicle: steriod suspending solution): 65 % of control; T/C (dose: 240.0 mg/kg/injection, schedule: Q01DX010 (ip), vehicle: steriod suspending solution): 85 % of control

Question: `OCC1OC(n2cnc3c(=S)nc[nH]c32)C(O)C1O` (stereo not drawn) was tested. Which T/C (dose: 4.0 mg/kg/injection, schedule: Q01DX010 (ip), vehicle: carboxymethylcellulose (CMC)) did it give?
Answer: 115 % of control

Question: And the T/C (dose: 8.0 mg/kg/injection, schedule: Q01DX010 (ip), vehicle: carboxymethylcellulose (CMC))?
Answer: 67 % of control

Question: And the T/C (dose: 16.0 mg/kg/injection, schedule: Q01DX010 (ip), vehicle: carboxymethylcellulose (CMC))?
Answer: 45 % of control

Question: What about the T/C (dose: 31.0 mg/kg/injection, schedule: Q01DX010 (ip), vehicle: carboxymethylcellulose (CMC)) of the same compound?
Answer: 82 % of control

Question: Which T/C (dose: 5.0 mg/kg/injection, schedule: Q01DX010 (ip), vehicle: carboxymethylcellulose (CMC)) does the source give for `CC(CCC(C)OS(C)(=O)=O)OS(C)(=O)=O` (stereo not drawn) here?
Answer: 72 % of control

Question: And the T/C (dose: 10.0 mg/kg/injection, schedule: Q01DX010 (ip), vehicle: carboxymethylcellulose (CMC))?
Answer: 93 % of control

Question: And the T/C (dose: 20.0 mg/kg/injection, schedule: Q01DX010 (ip), vehicle: carboxymethylcellulose (CMC))?
Answer: 102 % of control

Question: What about the T/C (dose: 40.0 mg/kg/injection, schedule: Q01DX010 (ip), vehicle: carboxymethylcellulose (CMC)) of the same compound?
Answer: 83 % of control

Question: What does the source list for `Cn1cnc([N+](=O)[O-])c1Sc1nc(N)nc2nc[nH]c12`?
Answer: T/C (dose: 2.5 mg/kg/injection, schedule: Q01DX010 (ip), vehicle: saline): 53 % of control; T/C (dose: 5.0 mg/kg/injection, schedule: Q01DX010 (ip), vehicle: saline): 62 % of control; T/C [1]: 37 % of control

Question: `CCOC(N)=O` was tested. Which T/C (dose: 250.0 mg/kg/injection, schedule: Q01DX010 (ip), vehicle: saline) did it give?
Answer: 70 % of control and 76 % of control

Question: With `C1CN1c1nc(N2CC2)nc(N2CC2)n1` as the compound, how does the T/C (dose: 0.06 mg/kg/injection, schedule: Q01DX010 (ip), vehicle: saline) read?
Answer: 77 % of control and 78 % of control

Question: What about the T/C (dose: 0.12 mg/kg/injection, schedule: Q01DX010 (ip), vehicle: saline) of the same compound?
Answer: 78 % of control and 86 % of control

Question: What about the T/C (dose: 0.25 mg/kg/injection, schedule: Q01DX010 (ip), vehicle: saline) of the same compound?
Answer: 44 % of control and 54 % of control

Question: For `Cc1c2oc3c(C)ccc(C(=O)N[C@@H]4C(=O)N[C@H](C(C)C)C(=O)N5CCC[C@H]5C(=O)N(C)CC(=O)N(C)[C@@H](C(C)C)C(=O)O[C@H]4C)c3nc-2c(C(=O)N[C@@H]2C(=O)N[C@H](C(C)C)C(=O)N3CCC[C@H]3C(=O)N(C)CC(=O)N(C)[C@@H](C(C)C)C(=O)O[C@H]2C)c(N)c1=O` (I: [aThr][dV]P[Sar][NMeV] / II: [aThr][dV]P[Sar][NMeV]; ester I:1-I:C, II:1-II:C; linker I:N-II:N via Actinocin(9to1)), which T/C (dose: 2.0 micrograms/kg/injection, schedule: Q01DX010 (ip), vehicle: saline) is on record?
Answer: 117 % of control

Question: And the T/C (dose: 20.0 micrograms/kg/injection, schedule: Q01DX010 (ip), vehicle: saline)?
Answer: 46 % of control

Question: Which T/C [2] does the source give for `CCCCCCCCCCCCCCCCC(C(=O)O)C(O)(CC(=O)O)C(=O)O` (stereo not drawn) here?
Answer: 84 % of control

Question: What about the T/C [3] of the same compound?
Answer: 87 % of control

Question: Which T/C (dose: 375.0 mg/kg/injection, schedule: Q01DX010 (ip), vehicle: carboxymethylcellulose (CMC)) does the source give for `O=c1cn[nH]c(=O)[nH]1` here?
Answer: 90 % of control

Question: For `c1ccc(CNc2ncnc3[nH]ncc23)cc1`, which T/C (dose: 15.6 mg/kg/injection, schedule: Q01DX010 (ip), vehicle: carboxymethylcellulose (CMC)) is on record?
Answer: 82 % of control

Question: With `CC(=O)Nc1ccc2nc3ccc(NC(C)=O)cc3[n+](-c3ccccc3)c2c1` as the compound, how does the T/C (dose: 25.0 mg/kg/injection, schedule: Q01DX010 (ip), vehicle: saline) read?
Answer: 56 % of control

Question: What about the T/C (dose: 50.0 mg/kg/injection, schedule: Q01DX010 (ip), vehicle: saline) of the same compound?
Answer: 21 % of control

Question: What about the T/C (dose: 100.0 mg/kg/injection, schedule: Q01DX010 (ip), vehicle: saline) of the same compound?
Answer: 12 % of control

Question: What about the T/C (dose: 200.0 mg/kg/injection, schedule: Q01DX010 (ip), vehicle: saline) of the same compound?
Answer: 3 % of control

Question: Which T/C (dose: 31.0 mg/kg/injection, schedule: Q01DX010 (ip), vehicle: methylcellulose (MC)) does the source give for `O=C(O)C(=O)c1ccc(-c2ccccc2)cc1` here?
Answer: 82 % of control

Question: And the T/C (dose: 62.5 mg/kg/injection, schedule: Q01DX010 (ip), vehicle: methylcellulose (MC))?
Answer: 87 % of control

Question: And the T/C (dose: 125.0 mg/kg/injection, schedule: Q01DX010 (ip), vehicle: methylcellulose (MC))?
Answer: 106 % of control

Question: With `Nc1nc(SCc2ccccc2)c2[nH]cnc2n1` as the compound, how does the T/C (dose: 4.7 mg/kg/injection, schedule: Q01DX010 (ip), vehicle: carboxymethylcellulose (CMC)) read?
Answer: 42 % of control

Question: And the T/C (dose: 9.4 mg/kg/injection, schedule: Q01DX010 (ip), vehicle: carboxymethylcellulose (CMC))?
Answer: 51 % of control

Question: Which T/C (dose: 0.5 mg/kg/injection, schedule: Q01DX011 (sc), vehicle: steriod suspending solution) does the source give for `C[C@]12CCC(=O)C=C1CC[C@H]1[C@@H]3CC[C@](O)(C(=O)CO)[C@@]3(C)C[C@H](O)[C@@]12F` here?
Answer: 76 % of control

Question: What about the T/C (dose: 1.0 mg/kg/injection, schedule: Q01DX011 (sc), vehicle: steriod suspending solution) of the same compound?
Answer: 36 % of control

Question: And the T/C (dose: 2.0 mg/kg/injection, schedule: Q01DX011 (sc), vehicle: steriod suspending solution)?
Answer: 61 % of control

Question: And the T/C (dose: 2.5 mg/kg/injection, schedule: Q01DX015 (ip), vehicle: carboxymethylcellulose (CMC))?
Answer: 103 % of control

Question: What about the T/C (dose: 3.5 mg/kg/injection, schedule: Q01DX011 (sc), vehicle: steriod suspending solution) of the same compound?
Answer: 64 % of control

Question: And the T/C (dose: 5.0 mg/kg/injection, schedule: Q01DX015 (ip), vehicle: carboxymethylcellulose (CMC))?
Answer: 105 % of control

Question: For `Cn1c(N)nc2nc[nH]c2c1=S`, which T/C (dose: 3.1 mg/kg/injection, schedule: Q01DX010 (ip), vehicle: carboxymethylcellulose (CMC)) is on record?
Answer: 105 % of control

Question: And the T/C (dose: 6.3 mg/kg/injection, schedule: Q01DX010 (ip), vehicle: carboxymethylcellulose (CMC))?
Answer: 59 % of control

Question: And the T/C [1]?
Answer: 102 % of control

Question: What about the T/C [2] of the same compound?
Answer: 91 % of control

Question: What about the T/C (dose: 20.0 mg/kg/injection, schedule: Q01DX010 (ip), vehicle: saline) of the same compound?
Answer: 99 % of control

Question: What about the T/C [3] of the same compound?
Answer: 101 % of control

Question: What about the T/C (dose: 40.0 mg/kg/injection, schedule: Q01DX010 (ip), vehicle: saline) of the same compound?
Answer: 122 % of control

Question: What about the T/C (dose: 80.0 mg/kg/injection, schedule: Q01DX010 (ip), vehicle: saline) of the same compound?
Answer: 114 % of control

Question: Which results are given for `CCC(=O)O[C@H]1CC[C@H]2[C@@H]3CCC4=CC(=O)CC[C@]4(C)[C@H]3CC[C@]12C`?
Answer: T/C (dose: 150.0 mg/kg/injection, schedule: Q01DX010 (sc), vehicle: steriod suspending solution): 108 % of control; T/C (dose: 300.0 mg/kg/injection, schedule: Q01DX010 (sc), vehicle: steriod suspending solution): 116 % of control; T/C (dose: 600.0 mg/kg/injection, schedule: Q01DX010 (sc), vehicle: steriod suspending solution): 104 % of control

Question: Which results are given for `CS(=O)(=O)OCCCl`?
Answer: T/C [3]: 89 % of control; T/C (dose: 50.0 mg/kg/injection, schedule: Q01DX010 (ip), vehicle: carboxymethylcellulose (CMC)): 88 % of control
